Counter-ions that a name gives are not always drawn.

Consider 20 compounds from patent US8202865B2, “Oxadiazole derivatives” (Merck Serono SA, priority 2007, dated 2012).

Assay [1] has as its target T1, S1P1 (Homo sapiens, UniProt P21453).
T1 construct: expressed in transfected cells; host or cells: CHO cells (membranes)
Description: Receptor binding assay, [33P]sphingosine 1-phosphate, membranes, WGA SPA beads. The note with it: membranes from CHO cells expressing S1P1; 25 pM [33P]S1P; 60 min RT. The gist of the method: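 CHO-cell membranes expressing S1P1 incubated with 25 pM [33P]S1P in 50 mM HEPES pH 7.5, 5 mM MgCl2, 100 mM NaCl, 0.4% fatty acid-free BSA with WGA SPA beads for 60 min at RT. Bound radioactivity counted by scintillation proximity; specific binding defined using 1000-fold excess unlabeled S1P.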

The target of another assay is T2, S1P3 (Homo sapiens, UniProt Q99500).
T2 construct: expressed in transfected cells; host or cells: CHO cells (membranes)
Put plainly: 35S-GTPγS binding, S1P3 membranes. The class given is biochemical. The following applies: membranes from CHO cells expressing S1P3; 60 min 30° C. The protocol: Receptor binding assay: Membranes were prepared from CHO cells expressing S1P1 or S1P3 for use in ligand and […] binding studies. Cells were suspended in 50 mM TRIS, pH 7.4, 2 mM EDTA, 250 mM Sucrose (buffer A) and 1× Complete protease inhibitor cocktail (Roche), and disrupted at 4° C. by N2 decompression using a cell disruption bomb (Parr Instrument). Following centrifugation at 1000 RPM for 10 min at 4° C., the supernatant was suspended in buffer A and centrifuged again at 19000 RPM for 60 min at 4° C. The pellet was then suspended in 10 mM HEPES, pH 7.4, 1 mM EDTA, 250 mM Sucrose (Buffer B), and 1× Complete EDTA-free protease inhibitor cocktail and homogenized using a potter. Membranes were flash frozen in liquid N2 and stored at −80° C. [33P]sphingosine 1-phosphate (3000 Ci/mmol; American Radiolabeled Chemicals, Inc.) was added to test compounds in DMSO. Membranes and WGA SPA beads (GE Healthcare) were added to give a final volume of 100 μl in 96-well plates with assay concentrations of 25 pM or 10 pM [33P]sphingosine 1-phosphate (respectively for S1P1 or S1P3), 50 mM HEPES, pH 7.5, 5 mM MgCl2, 100 mM NaCl, 0.4% fatty acid-free BSA, 1-5 μg/well of proteins and 100 μg/well of WGA SPA beads. Binding was performed for 60 min at RT on a shaker and bound radioactivity was measured on a PerkinElmer 1450 MicroBeta counter. Specific binding was calculated by subtracting remaining radioactivity in the presence of 1000-fold excess of unlabeled S1P. Binding data were analyzed using the GraphPad Prism program.
Measurements of ^35S-GTPγS Binding: Membranes (1 to 10 μg protein) prepared as described above, were incubated in 96-well Scintiplates (PerkinElmer) with test compounds diluted in DMSO, in 180 μl of 20 mM HEPES, pH 7.4, 10 mM MgCl2, 2 μg/well Saponin, 0.2% fatty acid free BSA (Assay buffer), 140 mM NaCl and 1.7 μM GDP. The assay was initiated with the addition of 20 μl of 1.5 nM [35S]-GTPγS (1100 Ci/mmol; GE Healthcare) in assay buffer. After 60 min incubation at 30° C. on a shaker, plates were centrifuged for 10 min at 2000 RPM. Supernatant was discarded and membrane bound radioactivity was measured on a PerkinElmer 1450 MicroBeta counter. Triplicate samples were averaged and expressed as % response relative to S1P activation in absence of compound (n=2).
(In general: Binding of GTPγS marks nucleotide exchange on a G protein.)

Assay [2] deals with T1, S1P1. Put plainly: 35S-GTPγS binding, S1P1 membranes. The class given is biochemical. The note with it: membranes from CHO cells expressing S1P1; 60 min 30° C. The gist of the method: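 CHO-cell membranes expressing S1P1 or S1P3 (1-10 μg) incubated with compounds in 20 mM HEPES pH 7.4, 10 mM MgCl2, 140 mM NaCl, saponin, 0.2% BSA, 1.7 μM GDP and [35S]-GTPγS (20 μl of 1.5 nM added), 60 min at 30° C. Bound radioactivity expressed as % of S1P activation.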

T2 sequence (Q99500 whole entry, species assumed): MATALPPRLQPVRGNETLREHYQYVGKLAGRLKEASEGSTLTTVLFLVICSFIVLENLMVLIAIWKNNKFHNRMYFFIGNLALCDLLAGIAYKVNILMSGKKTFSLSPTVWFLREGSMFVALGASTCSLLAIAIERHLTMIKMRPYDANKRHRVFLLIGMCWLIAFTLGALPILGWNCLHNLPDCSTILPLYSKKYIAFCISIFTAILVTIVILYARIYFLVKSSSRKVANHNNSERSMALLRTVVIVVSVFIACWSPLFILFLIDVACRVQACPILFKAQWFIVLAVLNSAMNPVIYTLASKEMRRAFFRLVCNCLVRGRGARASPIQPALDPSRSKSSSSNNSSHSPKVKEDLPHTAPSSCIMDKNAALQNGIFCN
T1 sequence (P21453 whole entry, species assumed): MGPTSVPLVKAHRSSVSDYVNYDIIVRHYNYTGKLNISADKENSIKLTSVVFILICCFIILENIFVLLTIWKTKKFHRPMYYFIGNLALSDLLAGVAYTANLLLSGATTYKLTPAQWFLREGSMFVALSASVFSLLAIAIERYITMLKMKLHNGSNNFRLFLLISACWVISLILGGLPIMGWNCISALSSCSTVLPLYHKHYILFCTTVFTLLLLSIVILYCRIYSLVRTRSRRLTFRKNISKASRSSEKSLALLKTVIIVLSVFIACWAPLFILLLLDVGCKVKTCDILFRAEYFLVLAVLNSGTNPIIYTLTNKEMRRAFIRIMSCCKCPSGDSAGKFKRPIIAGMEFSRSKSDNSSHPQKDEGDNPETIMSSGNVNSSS

As for `Cc1ccccc1-c1ccc(-c2nc(-c3ccc(C(=O)O)c(F)c3)no2)cc1CN1CCOCC1` [Example 75, 2-fluoro-4-{5-[2′-methyl-2-(morpholin-4-ylmethyl)biphenyl-4-yl]-1,2,4-oxadiazol-3-yl}benzoic acid, Trifluoroacetic acid salt], affinity at S1P1 [1] was put at a Ki of 177 nM. Further, the EC50 (usually the concentration giving half of the maximal effect) at S1P3 was found to be 1350 nM; on S1P1 [2] it was 182 nM.
For `COCc1cc(-c2nc(-c3ccc(C(=O)O)c(F)c3)no2)ccc1-c1cc(F)ccc1C` [Example 84, 2-fluoro-4-{5-[5′-fluoro-2-(methoxymethyl)-2′-methylbiphenyl-4-yl]-1,2,4-oxadiazol-3-yl}benzoic acid], in that order: 55 nM, 2800 nM and 34 nM.
Take `Cc1ccccc1-c1ccc(-c2nc(-c3ccc(C(=O)O)c(F)c3)no2)cc1CN(C)C` [Example 62, 4-(5-{2-[(dimethylamino)methyl]-2′-methylbiphenyl-4-yl}-1,2,4-oxadiazol-3-yl)-2-fluorobenzoic acid, Hydrochloride salt]: the Ki (as a rule, the equilibrium dissociation constant of an inhibitor or competing ligand from its target) at S1P1 [1] was 24 nM. Also, the EC50 at S1P3 was 699 nM; on S1P1 [2], 92 nM.
For `COCc1cc(-c2nc(-c3cccc(C(=O)NCCNC(C)=O)c3)no2)ccc1-c1ccccc1C` [Example 184, N-[2-(acetylamino)ethyl]-3-{5-[2-(methoxymethyl)-2′-methylbiphenyl-4-yl]-1,2,4-oxadiazol-3-yl}benzamide], in that order: 1 nM, 4490 nM and 3.3 nM.
At S1P1 [1], `COCc1cc(-c2nc(-c3ccc(C(=O)O)c(F)c3)no2)ccc1-c1cccc(C)c1C` [Example 95, 2-fluoro-4-{5-[2-(methoxymethyl)-2′,3′-dimethylbiphenyl-4-yl]-1,2,4-oxadiazol-3-yl}benzoic acid] yielded a Ki of 16 nM. In addition, the EC50 on S1P3 came to 4960 nM; at S1P1 [2], 48 nM.
For `CCc1ccccc1-c1ccc(-c2nc(-c3cccc(CN(C)CC(=O)O)c3)no2)cc1COC` [Example 143, N-(3-{5-[2′-ethyl-2-(methoxymethyl)biphenyl-4-yl]-1,2,4-oxadiazol-3-yl}benzyl)-N-methylglycine, hydrochloride salt], in that order: 0.8 nM, 281 nM and 0.6 nM.
The compound `COCc1cc(-c2nc(-c3cccc(CN(C)CCC(=O)O)c3)no2)ccc1-c1ccccc1C` [Example 150, N-(3-{5-[2-(methoxymethyl)-2′-methylbiphenyl-4-yl]-1,2,4-oxadiazol-3-yl}benzyl)-N-methyl-beta-alanine] had an inhibitory constant (Ki) on S1P1 [1] of 0.3 nM. The values for the EC50 on S1P3 and on S1P1 [2] were 95 nM and 0.5 nM, respectively.
For `COCc1cc(-c2nc(-c3cccc(CN(C)CC(=O)O)c3)no2)ccc1-c1ccccc1C` [Example 141, N-(3-{5-[2-(methoxymethyl)-2′-methylbiphenyl-4-yl]-1,2,4-oxadiazol-3-yl}benzyl)-N-methylglycine, Hydrochloride salt], in that order: 1.4 nM, 621 nM and 0.85 nM.
For the compound `CC1CCCCN1c1ccc(-c2nc(-c3ccc(C(=O)O)c(F)c3)no2)cc1C#N` (stereo not drawn) [Example 29, 4-{5-[3-cyano-4-(2-methylpiperidin-1-yl)phenyl]-1,2,4-oxadiazol-3-yl}-2-fluorobenzoic acid], the affinity on S1P1 [1], expressed as Ki, was 70 nM. Moreover, the EC50 at S1P3 is more than 30000 nM; at S1P1 [2], 430 nM.
The like results for `CCc1ccccc1-c1ccc(-c2nc(-c3ccc(F)c(CN(C)CC(=O)O)c3)no2)cc1COC` [Example 147, N-(5-{5-[2′-ethyl-2-(methoxymethyl)biphenyl-4-yl]-1,2,4-oxadiazol-3-yl}-2-fluorobenzyl)-N-methylglycine, Hydrochloride salt] were, in that order, 2 nM, 754 nM and 1.5 nM.
The like results for `Cc1ccccc1-c1ccc(-c2nc(-c3ccc(C(N)=O)c(F)c3)no2)cc1C` [Example 171, 4-[5-(2,2′-dimethylbiphenyl-4-yl)-1,2,4-oxadiazol-3-yl]-2-fluorobenzamide] were, in that order, 39 nM, more than 20000 nM and 19 nM.
In turn, `COCc1cc(-c2nc(-c3cc(F)c(C(=O)O)cc3F)no2)ccc1-c1ccccc1C` [Example 97, 2,5-difluoro-4-{5-[2-(methoxymethyl)-2′-methylbiphenyl-4-yl]-1,2,4-oxadiazol-3-yl}benzoic acid] showed a Ki at S1P1 [1] of 8 nM. Also, the 50% effective concentration (EC50) at S1P3 is 1940 nM; at S1P1 [2], 64 nM.
`CC1CCCCN1c1ccc(-c2nc(-c3ccc(C(=O)O)c(Cl)c3)no2)cc1NS(C)(=O)=O` (stereo not drawn) [Example 70, 2-chloro-4-(5-{4-(2-methylpiperidin-1-yl)-3-[(methylsulfonyl)amino]phenyl}-1,2,4-oxadiazol-3-yl)benzoic acid]: the Ki on S1P1 [1] came to 69 nM. Further, the EC50 on S1P3 was determined as 1410 nM; on S1P1 [2], 57 nM.
For `CC1CCCCN1c1ccc(-c2nc(-c3ccc(C(=O)O)c(F)c3)no2)cc1NS(C)(=O)=O` (stereo not drawn) [Example 30, 2-fluoro-4-(5-{4-(2-methylpiperidin-1-yl)-3-[(methylsulfonyl)amino]phenyl}-1,2,4-oxadiazol-3-yl)benzoic acid], in that order: 40 nM, 5930 nM and 50 nM.
For `Cc1ccccc1-c1ccc(-c2nc(-c3ccc(C(=O)O)c(Cl)c3)no2)cc1C` [Example 68, 2-chloro-4-[5-(2,2′-dimethylbiphenyl-4-yl)-1,2,4-oxadiazol-3-yl]benzoic acid], in that order: 65 nM, more than 30000 nM and 133 nM.
`Cc1cc(-c2nc(-c3ccc(C(=O)O)c(F)c3)no2)ccc1-c1cscc1C` [Example 9, 2-fluoro-4-{5-[3-methyl-4-(4-methyl-3-thienyl)phenyl}-1,2,4-oxadiazol-3-yl]benzoic acid] had a Ki at S1P1 [1] of 40 nM. The concentration giving a half-maximal response (EC50) is more than 30000 nM at S1P3 and 136 nM on S1P1 [2].
Regarding `Cc1ccccc1-c1ccc(-c2nc(-c3ccc(C(=O)O)cc3F)no2)cc1C` [Example 10, 4-[5-(2,2′-dimethylbiphenyl-4-yl)-1,2,4-oxadiazol-3-yl]-3-fluorobenzoic acid], the affinity on S1P1 [1], expressed as Ki, was 330 nM. Further, the EC50 is more than 30000 nM at S1P3 and 3510 nM on S1P1 [2].
The like results for `CC1CCCCN1c1ccc(-c2nc(-c3ccc(C(=O)O)c(F)c3)no2)cc1C(F)(F)F` (stereo not drawn) [Example 19, 2-fluoro-4-{5-[4-(2-methylpiperidin-1-yl)-3-(trifluoromethyl)phenyl]-1,2,4-oxadiazol-3-yl}benzoic acid] were, in that order, 110 nM, more than 30000 nM and 347 nM.
For the compound `COCc1cc(-c2nc(-c3ccc(C(=O)O)c(F)c3)no2)ccc1-c1ccccc1OC` [Example 79, 2-fluoro-4-{5-[2′-methoxy-2-(methoxymethyl)biphenyl-4-yl]-1,2,4-oxadiazol-3-yl}benzoic acid], the Ki on S1P1 [1] was 74 nM. In addition, the concentration for a half-maximal effect (EC50) on S1P3 was more than 20000 nM; on S1P1 [2], 208 nM.
The compound `Cc1ccccc1-c1ccc(-c2nc(-c3ccc(C(=O)O)c(F)c3)no2)cc1C(F)(F)F` [Example 22, 2-fluoro-4-{5-[2′-methyl-2-(trifluoromethyl)biphenyl-4-yl]-1,2,4-oxadiazol-3-yl}benzoic acid] yielded a Ki at S1P1 [1] of 524 nM. In addition, the EC50 at S1P3 was more than 20000 nM; at S1P1 [2], 417 nM.
